Values quoted from earlier work as cited in patent publication US20060084141A1, “Biosynthetic gene cluster for the maytansinoid antitumor agent ansamitocin” (priority 2001, published 2006).

Key:
[1] = system: various murine leukemia cell lines; details: in vitro
[2] = system: human carcinoma and leukemia cell lines; details: in vitro
[3] = system: human cancer patients
[4] = system: patients with different types of tumors; details: phase II trials

COc1cc2cc(c1Cl)N(C)C(=O)C[C@H](OC(=O)[C@H](C)N(C)C(C)=O)[C@]1(C)O[C@H]1[C@H](C)[C@@H]1C[C@@](O)(NC(=O)O1)[C@H](OC)/C=C/C=C(\C)C2 [Maytansine]
dose inhibiting growth [1]: 10^−3 to 10^−7 μg/ml | dose inhibiting growth [2]: 10^−3 to 10^−7 μg/ml | tumor response ([3]; phase I (early) trials): A few partial responses | dose limiting toxicity ([3]; phase I trials): dose limiting gastrointestinal toxicity and neurotoxicity | myelosuppression ([3]; phase I trials): modest levels of mylosuppression | response rates [4]: Insignificant response rates
